Measurements published in patent US4550102A, “Cephem compounds” (Fujisawa Pharmaceutical Co. Ltd., priority 1981, dated 1985).

Tests used:
Test in all cases: In vitro antimicrobial activity, two-fold agar-plate dilution method
Type in all cases: cell-based
E. coli NIHJ JC - 2 = conditions: Escherichia coli, heart infusion agar, 37° C., 20 hours, approximately 10^8 viable cells per ml, read-out: MIC (minimal inhibitory concentration)
Description: (§1) Test: In vitro Antimicrobial Activity
(§2) In vitro Antimicrobial activity was determined by the two-fold agar-plate dilution method as described below.
(§3) One loopful of an overnight culture of each test strain in Tripticase-soy broth (approximately 10^8 viable cells per ml) was streaked on heart infusion agar (HI-agar) containing graded concentrations of an antimicrobial agent, and the minimal inhibitory concentration (MIC) was expressed in term of μg/ml after incubation at 37° C. for 20 hours.

K. pneumoniae 20 = conditions: Klebsiella pneumoniae, heart infusion agar, 37° C., 20 hours, approximately 10^8 viable cells per ml, read-out: MIC (minimal inhibitory concentration)
Description: as §1, §2, §3

E. coli 31 = conditions: Escherichia coli, heart infusion agar, 37° C., 20 hours, approximately 10^8 viable cells per ml, read-out: MIC (minimal inhibitory concentration)
Description: as §1, §2, §3

MIC (E. coli NIHJ JC - 2): < 0.025 µg/mL
MIC (K. pneumoniae 20): < 0.025 µg/mL
MIC (E. coli 31): < 0.025 µg/mL
Structure (SMILES): CO/N=C(\C(=O)NC1C(=O)N2C(C(=O)[O-])=C(C[n+]3cccc(N)c3)CSC12)c1csc(N)n1 (stereo not drawn) [Compound A, 7-[2-Methoxyimino-2-(2-aminothiazol-4-yl)acetamido]-3-(3-amino-1-pyridiniomethyl)-3-cephem-4-carboxylate (syn isomer)]
